Measurements taken from US20020019387A1, “Vitronectin receptor antagonist” (SmithKline Beecham Corporation, priority 1997, published 2002).

Target: T1, αvβ3 (vitronectin receptor) (Homo sapiens, UniProt P05106+P06756)
T1 construct: Human placenta or human platelet αvβ3 (0.1-0.3 mg/mL) in buffer T; from tissue; host or cells: human placenta or human platelets
Assay: Solid-Phase [3H]-SK&F-107260 Binding to αvβ3
Conditions: read-out: concentration at which the compound inhibits vitronectin binding to SK&F 107260
Description: Solid-Phase [^3H]-SK&F-107260 Binding to αvβ3: Human placenta or human platelet αvβ3 (0.1-0.3 mg/mL) in buffer T (containing 2 mM CaCl2 and 1% octylglucoside) was diluted with buffer T containing 1 mM CaCl2, 1 mM MnCl2, 1 mM MgCl2 (buffer A) and 0.05% NaN3, and then immediately added to 96-well ELISA plates (Corning, New York, N.Y.) at 0.1 mL per well. 0.1-0.2 μg of αvβ3 was added per well. The plates were incubated overnight at 4° C. At the time of the experiment, the wells were washed once with buffer A and were incubated with 0.1 mL of 3.5% bovine serum albumin in the same buffer for 1 hr at room temperature. Following incubation the wells were aspirated completely and washed twice with 0.2 mL buffer A. […]
The plates were incubated for 1 hr at room temperature. […] The receptors were solubilized with 0.1 mL of 1% SDS and the bound [^3H]-SK&F-107260 was determined by liquid scintillation counting with the addition of 3 mL Ready Safe in a Beckman LS Liquid Scintillation Counter, with 40% efficiency. Nonspecific binding of [^3H]-SK&F-107260 was determined in the presence of 2 μM SK&F-107260 and was consistently less than 1% of total radioligand input. […] The Ki (dissociation constant of the antagonist) was calculated according to the equation: Ki=IC50/(1+L/Kd), where L and Kd were the concentration and the dissociation constant of [^3H]-SK&F-107260, respectively.

T1 sequence (P06756 31-889 limits assumed): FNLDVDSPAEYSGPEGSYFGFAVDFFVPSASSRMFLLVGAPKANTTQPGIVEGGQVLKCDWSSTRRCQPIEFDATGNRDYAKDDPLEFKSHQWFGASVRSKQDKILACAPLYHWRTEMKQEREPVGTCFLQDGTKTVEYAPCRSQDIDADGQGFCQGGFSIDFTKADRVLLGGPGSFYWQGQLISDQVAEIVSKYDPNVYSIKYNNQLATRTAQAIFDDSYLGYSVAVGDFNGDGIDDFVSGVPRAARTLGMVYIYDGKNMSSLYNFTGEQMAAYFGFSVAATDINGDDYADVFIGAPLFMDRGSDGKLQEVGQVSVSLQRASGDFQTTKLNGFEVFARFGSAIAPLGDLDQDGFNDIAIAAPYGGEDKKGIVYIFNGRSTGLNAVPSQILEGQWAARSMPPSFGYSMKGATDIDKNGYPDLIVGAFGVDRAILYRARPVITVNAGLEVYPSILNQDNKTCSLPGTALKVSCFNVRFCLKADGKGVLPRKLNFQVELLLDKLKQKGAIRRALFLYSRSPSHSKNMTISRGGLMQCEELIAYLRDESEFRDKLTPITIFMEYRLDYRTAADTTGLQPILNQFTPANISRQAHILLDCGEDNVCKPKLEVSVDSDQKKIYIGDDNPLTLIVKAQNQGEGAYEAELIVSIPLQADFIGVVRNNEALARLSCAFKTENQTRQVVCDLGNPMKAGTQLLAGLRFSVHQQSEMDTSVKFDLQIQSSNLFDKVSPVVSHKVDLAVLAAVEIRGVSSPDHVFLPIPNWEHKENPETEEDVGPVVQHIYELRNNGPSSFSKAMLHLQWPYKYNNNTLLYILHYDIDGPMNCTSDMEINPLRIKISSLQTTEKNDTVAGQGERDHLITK
T1 sequence (P06756 891-1048 partner limits assumed): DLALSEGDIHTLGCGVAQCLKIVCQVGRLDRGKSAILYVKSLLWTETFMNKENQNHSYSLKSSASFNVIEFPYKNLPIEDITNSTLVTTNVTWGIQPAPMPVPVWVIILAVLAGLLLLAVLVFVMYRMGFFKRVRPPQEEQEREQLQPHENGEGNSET
T1 sequence (P05106 27-788): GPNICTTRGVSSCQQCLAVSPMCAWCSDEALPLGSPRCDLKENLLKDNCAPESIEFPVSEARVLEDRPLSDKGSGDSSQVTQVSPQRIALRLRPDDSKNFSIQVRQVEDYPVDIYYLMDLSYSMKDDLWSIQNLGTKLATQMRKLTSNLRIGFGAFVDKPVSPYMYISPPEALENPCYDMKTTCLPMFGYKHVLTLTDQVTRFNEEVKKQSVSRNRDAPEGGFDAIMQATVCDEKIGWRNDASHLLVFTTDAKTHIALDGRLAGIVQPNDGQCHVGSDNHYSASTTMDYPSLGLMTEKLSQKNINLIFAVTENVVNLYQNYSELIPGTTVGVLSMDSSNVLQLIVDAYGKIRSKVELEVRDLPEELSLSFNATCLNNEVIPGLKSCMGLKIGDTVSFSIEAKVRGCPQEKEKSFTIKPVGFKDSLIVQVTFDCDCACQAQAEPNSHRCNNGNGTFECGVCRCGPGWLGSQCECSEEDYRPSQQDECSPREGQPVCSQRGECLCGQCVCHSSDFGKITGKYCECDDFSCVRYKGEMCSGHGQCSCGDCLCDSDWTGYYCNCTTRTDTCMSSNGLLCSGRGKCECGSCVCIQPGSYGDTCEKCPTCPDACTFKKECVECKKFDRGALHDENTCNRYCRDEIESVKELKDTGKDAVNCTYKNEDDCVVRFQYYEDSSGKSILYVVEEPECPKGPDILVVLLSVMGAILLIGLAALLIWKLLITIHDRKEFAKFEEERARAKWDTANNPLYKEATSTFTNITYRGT

SMILES: O=C(O)C[C@@H]1Cc2ccc(OCCCNc3ccccn3)cc2CN(Cc2ccc(F)c(F)c2F)C1=O [Example 1, (S)-3-oxo-8-[3-(pyridin-2-ylamino)-1-propyloxy]-2-(2,3,4-trifluorobenzyl)-2,3,4,5-tetrahydro-1H-2-benzazepine-4-acetic acid]
- IC50: ~3 nM
